Laboratory results reported in patent publication US8268976B2, “Flea GABA receptor subunit nucleic acid molecules” (Heska Corporation, priority 2000, dated 2012).
Read-outs that look alike come from different tables or passages of the source.

Columns and labels:
cat fleas [1] = experiment: Dieldrin filter-disk vial exposure of fleas, mortality (LC50) per flea population; details: Ctenocephalides felis, in Felis catus, 30 h, about 1 ul of DMSO solution on filter disk in vial, about 30 hours
Method: (§1) Dieldrin was dissolved in dimethylsulfoxide (DMSO) at concentrations ranging from 0.001 mM to 1000 mM. About 1 ul of dissolved dieldrin from each concentration was spotted onto a 6 mm diameter GF/C filter disk (Whatman, Inc. Clifton, N.J.) in the bottom of a 4 ml screw-top glass vial and allowed to air dry for 24 hours. Negative control vials were prepared in the same manner except that no dieldrin was dissolved in the DMSO. Each dieldrin concentration was tested in triplicate for each of the three flea populations. About 25 newly emerged cat fleas were sedated at 4° C. and transferred to each vial. Each vial was sealed with a thin, perforated Teflon septum secured by an open top screw cap and held vertically in the dark. After about 30 hours, the healthy live, moribund, and dead fleas in each vial were counted.

cat fleas [2] = experiment: Survival of dieldrin-exposed fleas from the heterozygous population, sorted by sequenced genotype at amino acid 285; assay type: in vivo, Ctenocephalides felis; details: 10 mM and 50 mM dieldrin, pooled
Method: The following method was used to determine the genotype of individual fleas. Individual fleas were physically crushed with a pipette tip in a microcentrifuge tube with 30 μl of DNAzol, available from Gibco BRL, Rockville, Md., then heated to 95° C. for 5 minutes. The mixture was centrifuged for 2 minutes, the liquid was removed and DNA was precipitated with ethanol. The precipitated DNA was centrifuged, the ethanol was removed and the pellet was resuspended in 30 μl of distilled water. […] The following PCR thermocycling and reaction conditions were used (1) one cycle of 95° C. for 30 seconds, (2) 35 cycles of 94° C. for 10 seconds, 52° C. for 30 seconds, and 72° C. 30 seconds, in reactions containing 1× AmpliTaq Buffer, 2.0 U AmpliTaq polymerase, available from Perkin Elmer, Foster City, Calif., 0.2 mM dNTP's, and 0.5 uM each primer.
The PCR product was separated by gel electrophoresis and purified using a Qiaquick™ column, available from Qiagen to produce an approximately 240-nucleotide molecule. The 240-nucleotide product was then sequenced using primers 285for and 285rev and dRhodamine terminator chemistry and the sequence was read to determine whether the individual was homozygous for serine or alanine, or a heterozygote.
as §1

## ClC1=C(Cl)[C@]2(Cl)[C@@H]3[C@@H]4C[C@@H]([C@H]5O[C@@H]45)[C@@H]3[C@@]1(Cl)C2(Cl)Cl [dieldrin]
Cat fleas [1]; read-out: LC50 (concentration of dieldrin at which 50% of the fleas were killed), heterozygous alanine/serine flea population (amino acid 285)
  LC50: 1000 µM
Cat fleas [1]; read-out: LC50 (concentration of dieldrin at which 50% of the fleas were killed), homozygous alanine flea population (amino acid 285)
  LC50: 200 µM
Cat fleas [1]; read-out: LC50 (concentration of dieldrin at which 50% of the fleas were killed), homozygous serine flea population (amino acid 285)
  LC50: 30000 µM
Cat fleas [2]; of 1 homozygous alanine flea
  number of dead fleas: 1
Cat fleas [2]; of 21 homozygous serine fleas
  number of dead fleas: 4
  number of live fleas: 16
  number of moribund fleas: 1
Cat fleas [2]; of 29 heterozygotes
  number of dead fleas: 24
  number of live fleas: 2
  number of moribund fleas: 3
